Test results: ChEMBL document CHEMBL1201862, “PubChem BioAssay data set” (2004)
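Growth conditions: 96-well plates. Treatment: test compound, 48 hours, 5 concentrations. Analysis: linear interpolation between bracketing concentrations; unreached endpoints set to highest concentration. GI50 = concentration required for 50% inhibition of growth.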 Calls of active or inactive are those of the source. No stated cut-off is given here; in the data, active = GI50 up to about 1.1 µM and inactive = higher.

Columns and labels:
Experiment in all cases: DTP human tumour cell line panel, 48 h
HOP-62 = test system: HOP-62
MDA-MB-231 = test system: MDA-MB-231
CAKI-1 = test system: CAKI-1
UO-31 = test system: UO-31
HCT-15 = test system: HCT-15
MCF7 = test system: MCF7
BT-549 = test system: BT-549
SNB-19 = test system: SNB-19
SK-MEL-28 = test system: SK-MEL-28
M14 = test system: M14
MDA-MB-435 = test system: MDA-MB-435
HCT-116 = test system: HCT-116
786-0 = test system: 786-0
OVCAR-4 = test system: OVCAR-4
UACC-257 = test system: UACC-257
SF-268 = test system: SF-268
A498 = test system: A498
RPMI-8226 = test system: RPMI-8226
Hs-578T = test system: Hs-578T

**Q.** What does the source list for O=C1Oc2ccccc2C(=O)/C1=C/NC(=S)NCc1ccccc1?
**A.** GI50 (HOP-62): 57.9 µM (inactive); GI50 (MDA-MB-231): 71 µM (inactive); GI50 (CAKI-1): 21 µM (inactive); GI50 (UO-31): 16.2 µM (inactive); GI50 (HCT-15): 49.5 µM; GI50 (MCF7): > 100 µM (inactive); GI50 (BT-549): 5.09 µM (inactive); GI50 (SNB-19): 43.6 µM (inactive); GI50 (SK-MEL-28): > 100 µM (inactive); GI50 (M14): 75 µM (inactive); GI50 (MDA-MB-435): 54.3 µM (inactive); GI50 (HCT-116): 53.8 µM (inactive); GI50 (786-0): 64.1 µM (inactive); GI50 (OVCAR-4): 73.8 µM (inactive); GI50 (UACC-257): 90.6 µM (inactive)

**Q.** How did the GI50 (HOP-62) turn out when Cc1cc(C)nc(NS(=O)(=O)c2ccc(Nc3c4ccc(Cl)cc4nc4c(C(=O)Nc5ccc(S(N)(=O)=O)cc5)cccc34)cc2)n1 was run?
**A.** 14.1 µM (inactive)

**Q.** What about the GI50 (UO-31) of the same compound?
**A.** 18.6 µM (inactive)

**Q.** And the GI50 (HCT-15)?
**A.** 17.9 µM

**Q.** What about the GI50 (SF-268) of the same compound?
**A.** 39.2 µM (inactive)

**Q.** What about the GI50 (SNB-19) of the same compound?
**A.** 24.6 µM (inactive)

**Q.** What about the GI50 (A498) of the same compound?
**A.** 14.8 µM (inactive)

**Q.** And the GI50 (SK-MEL-28)?
**A.** 33.8 µM (inactive)

**Q.** And the GI50 (RPMI-8226)?
**A.** 21.5 µM (inactive)

**Q.** And the GI50 (M14)?
**A.** 17.4 µM (inactive)

**Q.** And the GI50 (HCT-116)?
**A.** 16.6 µM (inactive)

**Q.** And the GI50 (786-0)?
**A.** 15.2 µM (inactive)

**Q.** What about the GI50 (OVCAR-4) of the same compound?
**A.** 23.5 µM (inactive)

**Q.** What about the GI50 (UACC-257) of the same compound?
**A.** 18.8 µM (inactive)

**Q.** Which results are given for Cc1nc(O)nc(N(CCO)/N=C/c2ccc(Cl)cc2)c1C(=O)Nc1ccc(Cl)cc1?
**A.** GI50 (HOP-62): 59.7 µM (inactive); GI50 (MDA-MB-231): 36.7 µM (inactive); GI50 (CAKI-1): > 100 µM (inactive); GI50 (UO-31): > 100 µM (inactive); GI50 (HCT-15): > 100 µM; GI50 (MCF7): > 100 µM (inactive); GI50 (SF-268): 89.7 µM (inactive); GI50 (SNB-19): 83.9 µM (inactive); GI50 (A498): > 100 µM (inactive); GI50 (SK-MEL-28): > 100 µM (inactive); GI50 (Hs-578T): 32.5 µM (inactive); GI50 (M14): 87.3 µM (inactive); GI50 (MDA-MB-435): > 100 µM (inactive); GI50 (HCT-116): 57.8 µM (inactive); GI50 (786-0): > 100 µM (inactive); GI50 (OVCAR-4): > 100 µM (inactive); GI50 (UACC-257): > 100 µM (inactive)

**Q.** With COc1cc(O)c2c(c1)OCC(Cc1ccc(O)cc1)C2=O (centres undefined) as the compound, how does the GI50 (HOP-62) read?
**A.** > 100 µM (inactive)

**Q.** What about the GI50 (MDA-MB-231) of the same compound?
**A.** > 100 µM (inactive)

**Q.** And the GI50 (CAKI-1)?
**A.** 68.5 µM (inactive)

**Q.** What about the GI50 (UO-31) of the same compound?
**A.** > 100 µM (inactive)

**Q.** And the GI50 (HCT-15)?
**A.** 94.8 µM

**Q.** And the GI50 (SF-268)?
**A.** 80.5 µM (inactive)

**Q.** And the GI50 (SNB-19)?
**A.** > 100 µM (inactive)

**Q.** What about the GI50 (A498) of the same compound?
**A.** 36.1 µM (inactive)

**Q.** What about the GI50 (SK-MEL-28) of the same compound?
**A.** > 100 µM (inactive)

**Q.** And the GI50 (RPMI-8226)?
**A.** 65.5 µM (inactive)

**Q.** What about the GI50 (Hs-578T) of the same compound?
**A.** 45.7 µM (inactive)

**Q.** And the GI50 (M14)?
**A.** > 100 µM (inactive)

**Q.** What about the GI50 (MDA-MB-435) of the same compound?
**A.** > 100 µM (inactive)

**Q.** And the GI50 (HCT-116)?
**A.** > 100 µM (inactive)

**Q.** And the GI50 (786-0)?
**A.** > 100 µM (inactive)

**Q.** What about the GI50 (OVCAR-4) of the same compound?
**A.** 86.3 µM (inactive)

**Q.** And the GI50 (UACC-257)?
**A.** > 100 µM (inactive)

**Q.** Fc1sc2c(c1F)C1CCC2C1 (centres undefined) was tested. Which GI50 (HOP-62) did it give?
**A.** > 100 µM (inactive)

**Q.** What about the GI50 (MDA-MB-231) of the same compound?
**A.** 83.2 µM (inactive)

**Q.** And the GI50 (CAKI-1)?
**A.** > 100 µM (inactive)

**Q.** And the GI50 (UO-31)?
**A.** 54 µM (inactive)

**Q.** And the GI50 (HCT-15)?
**A.** 85.9 µM

**Q.** What about the GI50 (MCF7) of the same compound?
**A.** > 100 µM (inactive)

**Q.** And the GI50 (SF-268)?
**A.** > 100 µM (inactive)

**Q.** What about the GI50 (SNB-19) of the same compound?
**A.** > 100 µM (inactive)

**Q.** What about the GI50 (A498) of the same compound?
**A.** > 100 µM (inactive)

**Q.** What about the GI50 (SK-MEL-28) of the same compound?
**A.** > 100 µM (inactive)

**Q.** And the GI50 (RPMI-8226)?
**A.** 31.9 µM (inactive)

**Q.** And the GI50 (Hs-578T)?
**A.** 19.7 µM (inactive)

**Q.** And the GI50 (M14)?
**A.** > 100 µM (inactive)

**Q.** And the GI50 (MDA-MB-435)?
**A.** 56.4 µM (inactive)

**Q.** What about the GI50 (HCT-116) of the same compound?
**A.** 48.8 µM (inactive)

**Q.** And the GI50 (786-0)?
**A.** > 100 µM (inactive)

**Q.** And the GI50 (OVCAR-4)?
**A.** > 100 µM (inactive)

**Q.** What about the GI50 (UACC-257) of the same compound?
**A.** 40.9 µM (inactive)

**Q.** How did the GI50 (HOP-62) turn out when Cn1c(=O)c2nc[nH]c2n(C)c1=O [THEOPHYLLINE] was run?
**A.** > 100 µM (inactive)

**Q.** What about the GI50 (MDA-MB-231) of the same compound?
**A.** > 100 µM (inactive)

**Q.** And the GI50 (CAKI-1)?
**A.** 22.9 µM (inactive)

**Q.** And the GI50 (UO-31)?
**A.** > 100 µM (inactive)

**Q.** What about the GI50 (HCT-15) of the same compound?
**A.** > 100 µM

**Q.** What about the GI50 (MCF7) of the same compound?
**A.** > 100 µM (inactive)

**Q.** And the GI50 (SK-MEL-28)?
**A.** > 100 µM (inactive)

**Q.** What about the GI50 (RPMI-8226) of the same compound?
**A.** > 100 µM (inactive)

**Q.** And the GI50 (Hs-578T)?
**A.** > 100 µM (inactive)

**Q.** What about the GI50 (M14) of the same compound?
**A.** > 100 µM (inactive)

**Q.** And the GI50 (HCT-116)?
**A.** > 100 µM (inactive)

**Q.** And the GI50 (786-0)?
**A.** > 100 µM (inactive)

**Q.** What about the GI50 (UACC-257) of the same compound?
**A.** > 100 µM (inactive)

**Q.** COc1cc2c[n+]3c4c(c2c(OC)c1OC)CCCC4CC3 (centres undefined) was tested. Which GI50 (HOP-62) did it give?
**A.** > 100 µM (inactive)

**Q.** And the GI50 (MDA-MB-231)?
**A.** > 100 µM (inactive)

**Q.** What about the GI50 (CAKI-1) of the same compound?
**A.** > 100 µM (inactive)

**Q.** And the GI50 (UO-31)?
**A.** > 100 µM (inactive)

**Q.** And the GI50 (HCT-15)?
**A.** > 100 µM

**Q.** What about the GI50 (SNB-19) of the same compound?
**A.** 36.6 µM (inactive)

**Q.** And the GI50 (A498)?
**A.** > 100 µM (inactive)

**Q.** What about the GI50 (SK-MEL-28) of the same compound?
**A.** > 100 µM (inactive)

**Q.** What about the GI50 (RPMI-8226) of the same compound?
**A.** > 100 µM (inactive)

**Q.** What about the GI50 (Hs-578T) of the same compound?
**A.** 9.2 µM (inactive)

**Q.** What about the GI50 (M14) of the same compound?
**A.** > 100 µM (inactive)

**Q.** What about the GI50 (MDA-MB-435) of the same compound?
**A.** > 100 µM (inactive)

**Q.** What about the GI50 (HCT-116) of the same compound?
**A.** > 100 µM (inactive)

**Q.** And the GI50 (786-0)?
**A.** > 100 µM (inactive)

**Q.** What about the GI50 (OVCAR-4) of the same compound?
**A.** > 100 µM (inactive)

**Q.** And the GI50 (UACC-257)?
**A.** 35.6 µM (inactive)
